Test results reported in patent US5622839A (ZymoGenetics, Inc., priority 1995, dated 1997).
Each block holds one compound with its values, some of them ahead of it.

What was measured:
[1] = target: T1, human calcitonin receptor (Homo sapiens, UniProt P30988); assay: [Ca2+]i response of BHK cells expressing cloned calcitonin receptor to calcitonin and extracellular calcium (fura-2); type: cell-based; conditions: for average peak [Ca2+]i response vs receptor number: each cell line expressing the calcitonin receptor
T1 construct: Hollex encoded a protein of 474 amino acids; expressed in transfected cells; host or cells: BHK 570 / BHK/KZ10-20-48 (baby hamster kidney) stably transfected with pHollex
T1 sequence (P30988 25-474): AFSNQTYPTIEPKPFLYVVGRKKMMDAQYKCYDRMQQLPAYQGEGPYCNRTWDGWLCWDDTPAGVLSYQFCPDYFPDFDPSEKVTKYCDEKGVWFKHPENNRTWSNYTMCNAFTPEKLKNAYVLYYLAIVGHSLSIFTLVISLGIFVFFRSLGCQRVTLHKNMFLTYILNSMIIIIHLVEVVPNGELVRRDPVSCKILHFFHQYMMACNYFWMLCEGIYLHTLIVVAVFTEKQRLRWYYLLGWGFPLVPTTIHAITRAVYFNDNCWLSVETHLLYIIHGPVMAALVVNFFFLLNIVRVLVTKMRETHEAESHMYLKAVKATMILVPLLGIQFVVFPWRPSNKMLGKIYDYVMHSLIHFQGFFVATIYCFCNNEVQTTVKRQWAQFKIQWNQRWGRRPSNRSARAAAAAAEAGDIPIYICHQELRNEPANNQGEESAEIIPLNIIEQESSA
Description: (§1) BHK cells expressing the cloned calcitonin receptor were assayed to determine their response to extracellular calcium. Cells were washed three times with a buffer (140 mM NaCl, 5 mM KCl, 0.5 mM MgCl2, 0.5 mM CaCl2 (concentration varied in some experiments), 10 mM glucose, 10 mM HEPES, pH 7.4) made using high purity salts (Aldrich, Milwaukee, Wis.) and sterile water (Baxter, McGaw Park, Ill.). Cells were loaded with fura-2 AM (Molecular Probes Inc.) (10 μg/ml) for 30 minutes essentially as described above, then washed an additional three times. Slides were mounted at room temperature on an inverted microscope (EPIPHOT, Nikon), and a field of cells (typically 20-30 cells) was located using a 40× Nikon fluor objective. The ratio of fura-2 emission at excitation wavelengths of 340 and 380 nm was recorded every 5 seconds. Individual cells were analyzed on a computer workstation (Sun Microsystems) using a software system designed for ratio imaging (Inovision). The concentration of calcium chloride in buffers was determined by comparison to calcium standards on a calcium analyzer (Nova Biomedical Corp. Waltham, Mass.). All experiments were reproduced three to eight times. Fura-2 ratio 340 nm to 380 nm values (R) were converted to [Ca^2+ ]i concentrations after calibration of the instrument using the formula: calcium (nm)=2240[R-0.3)/(20-R)]. Basal [Ca^2+ ]i concentrations were typically 80-150 nm. The peak fura-2 ratios 340/380 of individual cells exposed to 20 nm salmon calcitonin followed by 25 mM calcium chloride were averaged for some experiments and converted to [Ca^2+ ]i concentrations. Standard error was calculated at a 99% level using a Z score of 2.58 (n>30).

Control BHK cell lines = assay: [Ca2+]i response of control (calcitonin receptor-negative) BHK cells to extracellular calcium; type: cell-based, baby hamster
Description: as §1, with “Fura-2 ratio 340 nm to 380 nm values (R) were converted to [Ca^2+ ]i concentrations after calibration of the instrument using the formula: calcium (nm)=2240[R-0.3)/(20-R)]. Basal [Ca^2+ ]i concentrations were typically 80-150 nm. The peak fura-2 ratios 340/380 of individual cells exposed to 20 nm salmon calcitonin followed by 25 mM calcium chloride were averaged for some experiments and converted to [Ca^2+ ]i concentrations.” left out

[2] = target: T1, human calcitonin receptor; assay: Intracellular calcium response of Hollex1/Hollex2 cells (fura-2 imaging); type: cell-based
bone resorption = conditions: patients given long term treatment; Azria 1989; cited from earlier work
BHK/Zem228R = assay: Binding/competition assay with BHK/Zem228R cells (negative control); design: species or system baby hamster
Description: A pool of transfectants expressing the plaex 1 was tested for receptor-mediated binding to calcitonin using a competition assay. Hollex1 was used as a positive control and BHK cells transfected with Zem228R were used as a negative control.
The cells were plated at a density of 1×10^5 cells/well in a 24-well cell culture dish and allowed to grow for 48 hours at 37° C. and 5% CO2 in growth medium (described in previous examples). The cells were rinsed in binding medium as described in Example IIE. Three hundred microliters of hot binding medium containing 10 nM hCT and 5 μCi/ml ^125 I hCT. Cold competition was achieved by adding unlabelled hCT to a final concentration of 1 μM were added to appropriate wells. The cells were incubated 1.5 hours at room temperature. Unincorporated radioactivity was removed by three washes with PBS. Five hundred microliters of 1N NaOH was added to each well to solublize the cells. Each sample was counted on a gamma counter.

[3] = 25 mM extracellular calcium chloride, about 700,000 receptors/cell
[4] = cell lines expressing 100,000 and 150,000 receptors/cell

[Ca2+]i response to 73 mM KCl ([1]; instead of CaCl2, about 700,000 receptors/cell): no effect
Compound: [Cl-].[K+] [KCl]

Compound: [Ca+2].[Cl-].[Cl-] [calcium chloride]
magnitude of [Ca2+]i response relative to that induced by calcitonin [1, 3]: comparable to that induced by calcitonin
time for response to return to an elevated basal level [1, 3]: about 20 minutes
effect of calcitonin pretreatment on magnitude of response to extracellular calcium ([1]; 25 mM, about 700,000 receptors/cell, p<0.01): not significantly altered
concentration of maximum response ([1]; 700,000 receptors/cell): approximately 14 mM
EC50 ([1]; 700,000 receptors/cell, double reciprocal plot, read-out: effective concentration for half-maximal response): 8 to 10 mM
smallest increase in extracellular calcium giving a significant response ([1]; 700,000 receptors/cell, increase over basal (1.3 mM)): 2 mM
[Ca2+]i response to millimolar increases in extracellular calcium ([1]; BHK cells expressing recombinant calcitonin receptor): rapid and sustained elevation in [Ca^2+ ]i
[Ca2+]i response to 25 mM extracellular calcium for two minutes followed by continuous wash ([1]; about 700,000 receptors/cell): rapid and transient increase in [Ca^2+ ]i
[Ca2+]i response to 25 mM extracellular calcium chloride ([1]; about 700,000 receptors/cell, with or without calcitonin pretreatment): rapid and sustained increase in [Ca2+ ]i
[Ca2+]i response [1, 4]: increases in [Ca^2+ ]i
average peak [Ca2+]i response vs receptor number [1]: proportional to the average number of receptors per cell
response to extracellular calcium (Control BHK cell lines; Control BHK cell lines): no response
sensitivity to changes in extracellular calcium (Control BHK cell lines; three calcitonin receptor-negative BHK cell lines): no sensitivity

cells with a calcium response ([2]; Hollex1 cells): 30-70%
cells with a calcium response ([2]; Hollex2 cells): 1-5%
[Ca2+]i response [1, 4]: increases in [Ca^2+ ]i
effect of calcitonin pretreatment on response to extracellular calcium [1, 4]: marked potentiation
Compound: calcitonin
average peak [Ca2+]i response vs receptor number [1]: proportional to the average number of receptors per cell
resistance cases not accompanied with antibody formation (bone resorption): approximately 50%

Compound: human calcitonin: human calcitonin (hCT), natural peptide hormone ligand of the calcitonin receptor
hot (BHK/Zem228R; 10 nM hCT and 5 μCi/ml 125I hCT): 147 cpm
hot/cold (BHK/Zem228R; plus unlabelled hCT 1 μM): 105 cpm
